Laboratory results: patent US20190105344A1, “ORAL MOLECULAR IODINE COMPOSITION AND METHOD” (Iogen, LLC, priority 2016, published 2019)
Read-outs that look alike come from different tables or passages of the source.

Key:
[1] = Iodination of arachidonic acid by molecular iodine (thiosulfate titration, Example 1); type: physicochemical; details: 0.01N sodium thiosulfate titration
Procedure: A stock solution of 10 mg/ml arachidonic acid in ethanol was prepared. […] A control vial was prepared that had no arachidonic acid.
An iodate/iodide solution was prepared separately by adding NaIO3 (Sigma-Aldrich, St. Louis, Mo.; part number S4007-500G) and NaI (Sigma-Aldrich, St. Louis, Mo.; part number […]) to final concentrations of 3.16 and 20.55 mM, respectively, in 0.64M sodium carbonate in water.
Vials were then titrated with 0.01N sodium thiosulfate solution until the samples went from dark blue to colorless.
Since the oxidation of iodide after acidification is diffusion controlled, the reaction of iodate with iodide is essentially instantaneous and five moles of iodide reacts with each mole of iodate to form 3 moles of molecular iodine.
The ratio of iodide to iodate used in this experiment insured that there was unreacted […] present in the solution after acidification with HCl.

[2] = Iodination of arachidonic acid by molecular iodine with additional iodate (thiosulfate titration, Example 3); type: physicochemical
Procedure: A stock solution of 10 mg/ml arachidonic acid in ethanol was prepared. […] A control vial was prepared that had no arachidonic acid. An iodate/iodide solution was prepared separately by adding NaIO3 (Sigma-Aldrich, St. Louis, Mo.; part number […]) and NaI (Sigma-Aldrich, St.

[3] = cited from earlier work
[4] = male rats, subchronic administration, cited from earlier work
[5] = system: N-methyl-N-nitrosourea-induced mammary carcinogenesis; details: in vivo; cited from earlier work
[6] = Procedure: An iodate/iodide solution was prepared separately by adding sodium iodate (Sigma-Aldrich, St. Louis, Mo.; part number S4007-500G) and sodium iodide (Sigma Aldrich, St. Louis, Mo.; part number 383112-100G) to final concentrations of 3.16 and 20.55 mM, respectively, in 0.64M sodium carbonate in water. One mL of the iodate/iodide solution was then added to the vials followed by 100 μl of 0.5% starch indicator.
This additional sodium iodate was added to provide additional oxidant to re-oxidize any iodide that might be formed by the iodination of arachidonic acid.
Two mL of 1N HCl was added and a visual observation of the samples was recorded. Vials were then titrated with 0.01N sodium thiosulfate solution until the samples went from dark blue to colorless.

[7] = Subchronic administration to male rats, thyroid weight; type: in vivo; details: mammals; iodide vs molecular iodine

CCCCC/C=C\C/C=C\C/C=C\C/C=C\CCCC(=O)O [Arachidonic Acid, (5Z,8Z,11Z,14Z)-5,8,11,14-eicosatetraenoic acid]
Thiosulfate ([1]; 0.3 mg arachidonic acid): 1.75 mL
Thiosulfate ([1]; 1.0 mg arachidonic acid): 1.62 mL
decrease of molecular iodine observed from Sample 3 to Sample 4 ([2]; 1 mg arachidonic acid, additional iodate): 0.50 ∞mol
molecular iodine reacted with ([2]; one mg arachidonic acid, Sample 2 vs Sample 1, unit of the source corrected): 1 µmol
systemic inflammation ([3]; bodybuilders, 1500 mg): may reduce systemic inflammation
toxicity or safety risk ([3]; daily oral administration of up to 1500 mg): no toxicity or safety risk
carcinogenicity ([3]; in vivo): not carcinogenic

II [molecular iodine]
thyroid weight ([4]; even at 100 mg/kg): did not affect thyroid weight
formation of carcinogen induced tumors [5]: inhibits

C/C=C/C=C/C(=O)O [Sorbic Acid, sorbic acid, reference compound]
Thiosulfate ([6]; sample 2: 1 mg sorbic acid, no additional NaIO3): 1.45 mL
Thiosulfate ([6]; sample 4: 1 mg sorbic acid, additional NaIO3 188 ∝g): 1.60 mL
Thiosulfate ([2]; sample 2: 1 mg acid, no additional NaIO3): 1.70 mL
Thiosulfate ([2]; sample 4: 1 mg acid, additional NaIO3 188 ∝g): 2.10 mL

I [iodide]
concentration affecting thyroid weight, less than for a comparable effect from molecular iodine [7]: 10 fold
thyroid weight ([4]; 10 mg/kg): increased
formation of carcinogen induced tumors [5]: not
